Values quoted from earlier work in US7270977B2, “Polypeptides for identifying fungicidally active compounds” (priority 2001, dated 2007).
“Also recorded” adds a separate entry of the source.

Experiments:
[1] = system: C. albicans cells; settings: cited from earlier work; for effect on C. albicans: in words
[2] = biological target: recombinant IMPDH from Pneumocystis carinii (Pneumocystis carinii, UniProt Q12658); settings: recombinant P. carinii IMPDH; read-out: concentration resulting in 50% inhibition of the activity of the recombinant IMPDH; cited from earlier work
[3] = system: Cryptococcus neoformans; settings: in words; cited from earlier work
[4] = system: Candida guilliermondii; settings: in words; cited from earlier work
[5] = system: Candida krusei; settings: in words; cited from earlier work
[6] = system: Candida pseudotropicalis; settings: in words; cited from earlier work
[7] = system: Hansenula anomala; settings: in words; cited from earlier work
[8] = system: S. cerevisiae; settings: in words; cited from earlier work

Chain of recombinant IMPDH from Pneumocystis carinii (Q12658 76-529): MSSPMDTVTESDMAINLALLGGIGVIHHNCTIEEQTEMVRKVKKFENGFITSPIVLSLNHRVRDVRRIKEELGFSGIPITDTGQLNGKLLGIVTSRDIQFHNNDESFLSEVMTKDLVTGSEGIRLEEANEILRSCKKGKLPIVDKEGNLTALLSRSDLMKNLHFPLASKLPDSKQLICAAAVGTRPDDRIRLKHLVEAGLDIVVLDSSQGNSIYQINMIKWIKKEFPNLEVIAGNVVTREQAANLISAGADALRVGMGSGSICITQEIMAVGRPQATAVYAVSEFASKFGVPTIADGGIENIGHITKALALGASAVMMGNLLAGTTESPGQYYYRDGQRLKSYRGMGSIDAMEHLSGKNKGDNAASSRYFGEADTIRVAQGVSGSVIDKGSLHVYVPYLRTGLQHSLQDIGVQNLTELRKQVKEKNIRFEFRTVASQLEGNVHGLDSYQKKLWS

Structure (SMILES) | effect on C. albicans [1] | IC50 [2] [µM] | effect on growth in vitro [3] | effect on growth in vitro [4] | effect on growth in vitro [5] | effect on growth in vitro [6] | effect on growth in vitro [7] | effect on growth in vitro [8] | concentration inhibiting growth of C. albicans cells ([1]; wild-type cells) [µg/mL]
NC(=O)c1ncn([C@@H]2O[C@H](CO)[C@@H](O)[C@H]2O)c1O [mizoribine] | virtually ineffective |  |  |  |  |  |  |  | 
COc1c(C)c2c(c(O)c1C/C=C(\C)CCC(=O)O)C(=O)OC2 [mycophenolic acid] | inhibits in vitro the growth; also recorded: acts fungistatically | 25 | inhibits in vitro the growth | ineffective | ineffective | ineffective | ineffective | ineffective; also recorded: no effect | 1
